Where two headings read alike, the source gives them in different places.
Experiments:
[1] = test system: LOX human melanoma cell adhesion to murine laminin; assay: LOX cell adhesion to laminin; type: cell-based; details: read-out: Laminin IC50
Method: (§1) Adhesion assays were run essentially as described previously (Pai et al., J. Biomed. Res. 2: 53, 1992). 96-well plates were coated with human fibronectin (140 ng/well), human vitronectin (75 ng/well), human collagen I (100 ng/well), human collagen IV (100 ng/well), human fibrinogen (1 μg/well), murine laminin (600 ng/well), or polylysine, and incubated overnight in a humidified 37° C. incubator. Excess fibronectin or other substrate was then removed and 0.2 ml of 2 mg/ml bovine serum albumin (BSA)in Dulbecco's phosphate-buffered saline (DPBS) was added to each well, incubated for 2 hours at 37° C., and removed. LOX human melanoma cells, M27 murine lung carcinoma cells or B16F10 mouse melanoma cells were detached from tissue culture flasks with RPMI medium containing 0.2M urea and 10 mM EDTA, and 0.18 ml of cells were added to each well to a final cell concentration of 1×10^5 cells/well. For inhibition studies 20 μl of 10× compound was added to the wells prior to cell addition. Cells were allowed to adhere for 1 hour at 37° C. The wells were then gently washed twice with 0.2 ml DPBS. The fluorescent dye calcein AM (Molecular Probes, Eugene Oreg.) in DPBS (0.1 ml of 1 μM) was added to each well, and the plates were incubated for 1 hour at room temperature. Adherent cells were quantitated by reading the fluorescence on a Cytofluor 2300 fluorescent plate reader (Millipore) at 485 nm excitation and 530 nm emission.

[2] = test system: LOX human melanoma cell adhesion to human vitronectin; assay: LOX cell adhesion to vitronectin; type: cell-based; details: read-out: Vitronectin IC50
Method: as §1

[3] = test system: LOX human melanoma cell adhesion to human collagen IV; assay: LOX cell adhesion to collagen IV; type: cell-based; details: read-out: Collagen IV IC50
Method: as §1

[4] = test system: LOX human melanoma cells; assay: Tumor cell invasion through collagen/fibronectin coated membranes; type: cell-based; details: for IC50: Homo sapiens, 5 hours; for inhibition of in vitro tumor cell invasion: fibronectin/collagen matrix
Method: […] Cell Invasion Through Collagen/Fibronectin Coated Membranes:
Nucleopore polycarbonate membranes (8 μm pore size) were coated with 0.05 ml of type I collagen and allowed to dry overnight. 210 μl of serum free DMEM with BSA was added to each Boyden chamber. Membranes were placed in chambers and upper chambers were screwed on. Human fibronectin (50 μl of 0.1 mg/ml solution in DMEM with BSA) was added to the top chamber and allowed to sit on membranes for 1 hour at room temperature. Compounds (50 μl) at 10× concentration in DMEM with BSA were added to the chambers. LOX melanoma cells were detached from flasks with trypsin/EDTA solution and resuspended in RPMI with 10% fetal bovine serum. Cells were centrifuged, washed 2× with DMEM with BSA, and resuspended in 10 ml of DMEM with BSA. LOX cells (0.45 ml of 7.8×10^5 cells per ml) were added to each chamber and chambers were incubated for 5 hours at 37° C. The medium was removed from the upper chamber by aspiration, the top chamber was unscrewed, and the membrane was removed. The membrane was inverted, pinned to a dissecting tray, and fixed with Diff Quik fixative for 3 minutes The fixative was then removed and Diff Quik Stain was added for 2 minutes. The stain was decanted and membranes were rinsed with distilled water. Membranes were inverted onto glass slides, and non-invading cells were wiped away with a cotton swab. Permount was added to the slide and the membrane was covered with a cover slip. The number of cells that invaded was quantitated on a Nikon TMS microscope with C-2 Image Analyzer software (Olympus Corp.).
The greater potency of the compounds in this assay (IC50 for compound B<400 nM) may result from the longer duration of this assay (5 hours) relative to the fibronectin adhesion assay (1 hour).

[5] = MTT cytotoxicity assay; type: cell-based; details: human, lox melanoma cells; for CC50 at 1 h: read-out: MTT 1 Hr LD50
Method: LOX human melanoma cells, in RPMI medium with 2 mg/ml BSA and 25 mM HEPES, pH 7.4, were seeded at 4×10^4 cells/well in 96-well microtiter plates and grown overnight in a humidified 37° C. incubator. On the following day, the medium was aspirated and wells were washed once with 0.1 ml of DPBS. Compounds (0.1 ml) in DPBS were added to wells in quadruplicate at appropriate concentrations. The cells were then incubated with test compound for 1 hour at 37° C. Wells were aspirated and washed 2× with 0.1 ml DPBS. MTT [3-(4,5-Dimethylthiazol-2-yl)-2,5-diphenyltetrazolium bromide] (0.1 ml of 1 mg/ml solution in PBS from Sigma Chemical Co.) was added to each well and incubated for 2 hour at 37° C. MTT was aspirated and 0.1 ml of 50% N,N-dimethylformamide with 20% sodium dodecyl sulfate was added to each well. Plates were shaken for 10 minutes on a Titer-Plate shaker (Labline) at room temperature. Optical density was read at 570 nm with a plate-reading spectrophotometer (Dynatech MR5000).

[6] = Calcein cytotoxicity assay; type: cell-based; details: human, lox melanoma cells; for CC50 at 2 h / CC50 at 6 h: calcein AM assay; for CC50 at 2 h: read-out: 2 Hr Tox LD50; for CC50 at 6 h: read-out: 6 Hr Tox LD50
[7] = test system: LOX human melanoma cell adhesion to human collagen I; assay: LOX cell adhesion to collagen I; type: cell-based; details: read-out: Collagen I IC50
Method: as §1

[8] = test system: histamine-induced dyspnea; assay: Bronchodilator (in vivo) Guinea Pig Dyspnea; details: oral, one hour before histamine challenge
Procedure, shortened: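 Fasted, unanesthetized guinea pigs (250-350 g) received the test drug orally one hour before exposure to an aerosolized 0.1% histamine solution. Onset of dyspnea was recorded, and data were expressed as number tested over number survived.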

Compound	IC50 [1]	IC50 [2]	IC50 [3]	IC50 ([4]; read-out: Invasion IC50)	inhibition of in vitro tumor cell invasion [4]	CC50 at 1 h [5]	CC50 at 2 h ([6]; 2 hours)	CC50 at 6 h ([6]; 6 hours)	IC50 [7]	DYSP survivors ([8]; 10 mg/kg)	DYSP survivors ([8]; 50 mg/kg)	DYSP survivors ([8]; 100 mg/kg)	IC50 ([4]; read-out: Invasion IC50 (text))	selectivity ratio at 1 h ([5]; MTT, read-out: selectivity for blockade of fibronectin adhesion vs. cytotoxicity (MTT 1 hour))	selectivity ratio at 2 h ([6]; 2 hours, calcein AM, read-out: selectivity for blockade of fibronectin adhesion vs. cytotoxicity (2 Hour Tox))	selectivity ratio at 6 h ([6]; 6 hours, calcein AM, read-out: selectivity for blockade of invasion vs. cytotoxicity (6 Hour Tox))	responders at 100 mg/kg ([8]; Cavia porcellus, 1 h, 100 mg/kg, read-out: DYSP survivors (converted))
Cc1ccc(C2=C3CC4CCC(C3c3ccccc32)N4C)cc1 (stereo not drawn) [J]	2.5 µM	12.8 µM	10 µM	0.48 µM	inhibit in vitro tumor cell invasion through a fibronectin/collagen matrix	54.6 µM	58.4 µM	30.6 µM	4.5 µM	0/3	1/3	3/3	–	–	–	–	–
CN1C2CCC1C1C(=C(c3ccc(Cl)cc3)c3ccccc31)C2 (stereo not drawn) [C]	3.5 µM	5.9 µM	9.9 µM	0.66 µM	inhibit in vitro tumor cell invasion through a fibronectin/collagen matrix	95.1 µM	85.3 µM	22.5 µM	4 µM	–	–	0/3	–	–	–	–	–
COc1ccc(C2=C3CC4CCC(N4)C3c3ccccc32)cc1 (stereo not drawn) [Compound B]	7.7 µM	16.8 µM	16.2 µM	< 0.4 µM	inhibit in vitro tumor cell invasion through a fibronectin/collagen matrix	97.6 µM	74.5 µM	24.6 µM	6.7 µM	–	–	–	< 0.4 µM	19	15	> 61	0%
